{"source": "paper PMC3199867", "about": "“Targeting surface nucleolin with multivalent HB-19 and related Nucant pseudopeptides results in distinct inhibitory mechanisms depending on the malignant tumor cell type” (BMC Cancer, 2011)", "assay_in_all_cases": "Cell adhesion to plastic culture flask", "assay_type_in_all_cases": "cell-based, human", "key": {"[1]": {"tested_on": "LNCaP", "conditions": "10 μM, adherent cells counted after 16 hours of culture", "excerpt": "(§1) A. Inhibition of Cell adhesion by N6. […] C. The effect of Nucant treatment on cell proliferation. […] The ordinates give the mean ± SD of triplicate samples. Statistical significance: **p < 0.01, ***p < 0.001."}, "[2]": {"tested_on": "MDA-MB-231", "conditions": "MDA-MB-231, 10 μM, adherent cells counted after 16 hours of culture", "excerpt": "as §1"}, "[3]": {"tested_on": "MDA-MB-435", "conditions": "MDA-MB-435, 10 μM, adherent cells counted after 16 hours of culture", "excerpt": "as §1"}}, "data": [{"substance": "Ac-Lys-Aib-Gly-Lys-Aib-Gly-Lys-Aib-Gly-Lys-Aib-Gly-Lys-Aib-Gly-Lys-Aib-Gly-CONH2 [Nucant N6, Presents hexavalently the pseudo-tripeptide Lysψ(CH2N)-Pro-Arg coupled to the polypeptide template containing Aib]", "values": [{"measurement": "degree of adhesion inhibition", "setting": "[1]", "value": 66, "unit": "%"}, {"measurement": "degree of adhesion inhibition", "setting": "[2]", "value": 58, "unit": "%"}, {"measurement": "degree of adhesion inhibition", "setting": "[3]", "value": 41, "unit": "%"}]}]}
